Assay results from ChEMBL document CHEMBL1129156, “Oreganic acid: a potent novel inhibitor of ras farnesyl-protein transferase from an endophytic fungus” (Bioorg Med Chem Lett, 1996).
Active and inactive are the calls of the source.

Columns and labels:
Assay type in all cases: protein-complex assay
[1] = target: T1, Protein farnesyltransferase (Homo sapiens, UniProt P49354+P49356); assay: In vitro inhibition of human recombinant Protein farnesyltransferase
[2] = target: T1, Protein farnesyltransferase; assay: In vitro inhibition of human recombinant Protein farnesyltransferase at 20 uM (Inactive)
[3] = target: T1, Protein farnesyltransferase; assay: In vitro inhibition of human recombinant Protein farnesyltransferase with respect to FPP

Row | Compound | IC50 [1] [nM] | Activity [2] | Ki [3] [nM]
1 | O=C(O)C/C(C(=O)O)=C(/CCCCCCCCCCCCCCCCO)C(=O)O | 3.3 | – | –
2 | COC(=O)C/C(C(=O)OC)=C(/CCCCCCCCCCCCCCCCOS(=O)(=O)O)C(=O)OC | 10.6 | – | –
3 | COC(=O)C/C(C(=O)OC)=C(/CCCCCCCCCCCCCCCCO)C(=O)OC | – | inactive | –
4 | O=C(O)C/C(C(=O)O)=C(/CCCCCCCCCCCCCCCCOS(=O)(=O)O)C(=O)O | 14 | – | 4.5
